Like-named read-outs stand apart in the source and are kept apart here.
Key:
[1] = target: T1, HIV-1 protease (Human immunodeficiency virus type 1 group M subtype B, UniProt P04585); assay: Assay for inhibitory effect on HIV protease (residual enzyme activity, HPLC of substrate cleavage); type: biochemical; conditions: pH 5.5; for Ki / kinact: HIV-1 protease 2.6 nM; for Ki: inhibition constant; for kinact: rate constant of covalent bond formation, read-out: kina (converted); for kinact/KI: second order rate constant, HIV-1 protease, read-out: kina /KI (converted)
T1 construct: 2.6 nM of HIV-1 protease
Experimental: The inhibitory effect on HIV protease of the compounds of the present invention was determined by the following method.
To a buffer solution comprising 50 mM sodium acetate, pH 5.5, 1 mM dithiothreitol(DTT), 1 mM ethylenediaminetetraacetate (EDTA), 0.75M ammonium sulfate, 0.2M sodium chloride and 0.1% NP40(NONIDET P-40; Sigma Chemical Co., U.S.A.), were added various concentrations of a compound selected from Compound Nos. 1 to 92 to prepare a preincubation solution. Inhibition reaction was started with the addition of 2.6 nM of HIV-1 protease to the preincubation solution. Each 10 μl of the reaction solution was taken at a given time interval and added to 80 μl of assay solution containing 100 μM of reaction substrate in the same buffer solution as above to assay for the residual enzyme activity. In this context, an oligopeptide(KM =20 μM) consisting of 11 amino acids, i.e., Ser-Ile-Ala-Glu-(p-NO2)-Phe-Leu-Val-Arg-Ala-Lys-His, was used as a reaction substrate, which oligopeptide was to be cleaved in two by the breakage of amide bond between (P--NO2)-Phe and Leu upon the attack of HIV protease. The reaction rate was determined by subjecting the substrate before the reaction and the product after the reaction to HPLC separation and then measuring the relative amount of the product, using the strong absorbance of (p--NO2)-Phe at 280 nm. The amount of reduction in enzyme activity according to the elapsed time were measured and the natural logarithmic values(ln) of the measured amounts were plotted against time to obtain a linear graph and kobs was calculated from the slope of the linear graph.
The inhibition constant was calculated according to the following equation: [formula] wherein: kobs is a rate constant indicating the rate of reduction in enzyme activity according to the elapsed time under the presence of a given concentration of inhibitor,
kina is a rate constant indicating the rate of chemical reaction forming covalent bond between an enzyme and an inhibitor in Michaelis-Menten complex,
KI is an inhibition constant indicating the dissociation rate of Michaelis-Menten complex into an enzyme and an inhibitor, and
[I] means the inhibitor concentration.
The above equation is applicable to an experiment carried out under the condition in which the concentration of inhibitor is far higher than that of enzyme(Steady State Kinetic). […] The inhibition constants KI and kina and second order rate constant kina /KI were obtained by inputting the value of [E]/([E]+[EI]+[EI']) into KINSIM/FITSIM program. FIG. 1 exemplifies a result of the experiment determining the binding ratio of enzymes and inhibitors, which result was obtained by reacting the enzyme and the inhibitor in various concentration ratios for a sufficient time period(at least for 30 minutes), and then plotting the relative activity of the remaining enzyme against [conc. of inhibitor]/[conc. of enzyme].

[2] = test system: HIV-1; assay: Anti-viral activity: syncytium formation (Sup T1) or reverse transcriptase assay (H9); type: cell-based; conditions: Human immunodeficiency virus 1, SUP-T1
Experimental: The anti-viral activity of the compounds of the present invention was determined by measuring the concentration of the compounds that inhibits the proliferation of HIV by 50%(IC50) through a survey for syncytium formation or reverse transcriptase assay.
1×10^5 cells of each of H9(ATCC HTB 176) and Sup T1 cell lines were added to the wells of a 24-well microtiter plate and various concentrations so the compounds of the present invention were added thereto. 200 TCID50 (200-fold of 50% tissue culture infection dose) of HIV-1 inoculum and rpmi-1640 medium(Sigma Chemical Co., U.S.A) were added successively to the wells and the plate was incubated at 37° C. In case of Sup T1, the number of syncytium formed was investigated after 3 to 9 days. IC50 of each compound was determined by measuring the concentration of inhibitor that can reduce the number of syncytium by 50% compared with those formed in the same condition without the inhibitor.
In case of H9, three-quarters(3/4) of the culture medium in volume was refreshed every 3 days; and 6 ml of the culture fluid was centrifuged at 1000 rpm for 10 minutes. To 5 ml of the resulting supernatant were added 2.5 ml of 30% polyethyleneglycol(PEG, M.W. 6000-8000) and 0.4M NaCl. The resulting solution was allowed to stand at 0° C. overnight to precipitate virus particles. The solution was centrifuged at 2000 rpm for 45 minutes, the supernatant was discarded therefrom and the precipitate was diluted with 20 μl of a reverse transcriptase suspension buffer(50 mM tris-HCl, pH 7.5, 1 mM dithiothreitol, 20% glycerol, 0.25M KCl and 0.25% Triton X-100). The resulting suspension was stored in an Effendorf tube at -70° C. until used. A procedure of freezing said virus suspension for 2 minutes in dry ice and thawing same at 37° C. for 2 minutes was repeated three times and the resulting suspension was centrifuged at 4° C. The resulting supernatant was used in carrying out the reverse transcriptase assay.
10 μl of the said viral suspension was added to a solution of: 10 μl of buffer solution(250 mM tris-HCl, pH 7.5, 37.5 mM MgCl2, 0.25% triton X-100), 1.2 μl of 200 mM dithiothreitol, 5 μl of 10 μM oligo(dT)-poly(A)(Boeringer Manheim, 12-18 oligomer), 1 μl(1 μCi) of ^3 H-TTP(Thymidinetri-phosphate) and 23.6 μl of water; and the resulting mixture was placed at 37° C. After 1 hour, the mixture was poured onto a WHATMAN DEB1 filter and the filter was washed three times with 5 ml of 2×SSC buffer solution(17.53 g of sodium chloride, 8.82 g of sodium citrate, pH 7.0, 1 liter of water) for about 10 minutes each time and twice with 95% ethanol for 10 seconds. The filter was put onto aluminium foil and dried with an infra-red lamp. The amount of radioactivity was counted using a liquid scintillation counter. IC50 of each compound was determined by measuring the concentration of inhibitor that can reduce the activity of reverse transcriptase by 50%.

[3] = Cytotoxicity in H9 or Sup T1 cells (trypan blue dye exclusion); type: cell-based; conditions: human
Experimental: To determine the cytotoxicity of the compounds of the present invention, 0.1 μM to 100 μM of the novel compounds were added to H9 cell or Sup T1 cell and the mixture was cultured on a rpmi-1640 medium at 37° C. The medium was refreshed every 3 days and the extent of cell proliferation was observed using Hemacytometer according to the trypan blue dye exclusion technique which is well known in the art. CT50 (i.e., concentration that causes death of cells by 50%) was determined. For reference, AZT(Burrows-Wellcome), A-75925 (Abbott, C2 symmetric compound) and Ro-31-8959(F. Hofmann-La Roche) were used as control compounds.

[4] = concentration that causes death of cells by 50%, H9 or Sup T1 cells, 37° C, read-out: CT50 (the source's name)

SMILES | Ki [1] | kinact [1] | kinact/KI [1] | IC50 [2] | CC50 [3, 4] | CC50 ([3]; h9 or sup t1 cells)
CC(C)C(Cc1ccccc1)NC(=O)C[C@@H]1O[C@@H]1[C@H](Cc1ccccc1)NC(=O)[C@H](CC(N)=O)NC(=O)c1ccc2ccccc2n1 (some centres unmarked) [compound 48] | 600 nM | 0.035 s⁻¹ | 58300 M⁻¹ s⁻¹ | 500 nM | ~5000 nM | –
CC(C)[C@H](NC(=O)OCc1ccccc1)C(=O)N[C@@H](Cc1ccccc1)[C@H]1O[C@H]1CCc1ccccc1 [compound 53, 2-L-(N-benzyloxycarbonyl-L-valinyl)amino-(3R,4S)-epoxy-1,6-diphenylhexane] | 91 nM | 0.0015 s⁻¹ | 16500 M⁻¹ s⁻¹ | 1000 to 1500 nM | > 100000 nM | –
CC(C)(C)OC(=O)NC[C@@H]1O[C@@H]1[C@H](Cc1ccccc1)NC(=O)[C@H](CC(N)=O)NC(=O)c1ccc2ccccc2n1 [compound 83] | 400 nM | 0.02 s⁻¹ | 50000 M⁻¹ s⁻¹ | 750 nM | > 10000 nM | –
CC[C@H](C)[C@H](NC(=O)C[C@@H]1O[C@@H]1[C@H](Cc1ccccc1)NC(=O)[C@H](CC(N)=O)NC(=O)c1ccc2ccccc2n1)C(=O)NO [compound 40] | 33 nM | 0.00417 s⁻¹ | 1270 M⁻¹ s⁻¹ | 700 nM | > 100000 nM | –
CC(C)[C@H](NC(=O)C[C@@H]1O[C@@H]1[C@H](Cc1ccccc1)NC(=O)[C@H](CC(N)=O)NC(=O)c1ccc2ccccc2n1)C(N)=O [compound 32] | 5 nM | 0.00367 s⁻¹ | 733000 M⁻¹ s⁻¹ | 500 nM | > 100000 nM | –
COC(=O)C(Cc1ccccc1)NC(=O)C(CCC(N)=O)NC(=O)C[C@@H]1O[C@@H]1[C@H](Cc1ccccc1)NC(=O)[C@H](CC(N)=O)NC(=O)c1ccc2ccccc2n1 (some centres unmarked) [compound 14] | 350 nM | 0.00417 s⁻¹ | 11800 M⁻¹ s⁻¹ | 9000 nM | > 100000 nM | –
NC(=O)C[C@H](NC(=O)OCc1ccccc1)C(=O)N[C@@H](Cc1ccccc1)[C@H]1O[C@H]1CCc1ccccc1 [compound 52, 2-L-(N-benzyloxycarbonyl-L-asparaginyl)amino-(3R,4S)-epoxy-1,6-diphenylhexane] | 100 nM | 0.0005 s⁻¹ | 5000 M⁻¹ s⁻¹ | 700 to 1200 nM | > 100000 nM | –
CC[C@H](C)[C@H](NC(=O)C[C@@H]1O[C@@H]1[C@H](Cc1ccccc1)NC(=O)[C@H](CC(N)=O)NC(=O)c1ccc2ccccc2n1)C(=O)OC [compound 2, N-[5-L-[[N-(2-quinolinecarbonyl)-L-asparaginyl]amino]-epoxy-6-phenyl-hexanoyl]-L-isoleucine methyl ester] | 18 nM | 0.00367 s⁻¹ | 200000 M⁻¹ s⁻¹ | 200 nM | > 100000 nM | –
CC[C@H](C)[C@H](NC(=O)C[C@@H]1O[C@@H]1[C@H](CC1CCCCC1)NC(=O)[C@@H](NC(=O)N(C)Cc1ccccn1)C(C)C)C(=O)OC [compound 39, N-{5-L-[[N,N-(2-pyridylmethyl)(methyl)-amino]carbonylvalinyl]amino-(4R, R3S)-epoxy-6-(cyclohexylmethyl)-hexanoyl}-L-isoleucine methyl ester] | > 10000 nM | – | – | 1000 nM | > 100000 nM | –
CC(C)[C@H](CCCc1ccccc1)NC(=O)C[C@@H]1O[C@@H]1[C@H](Cc1ccccc1)NC(=O)[C@H](CC(N)=O)NC(=O)c1ccc2ccccc2n1 [compound 45] | 1.2 nM | 0.04 s⁻¹ | 3.33e+07 M⁻¹ s⁻¹ | 200 nM | > 100000 nM | –
NC(=O)C[C@H](NC(=O)OCc1ccccc1)C(=O)NC[C@@H]1O[C@@H]1[C@H](Cc1ccccc1)NC(=O)[C@H](CC(N)=O)NC(=O)OCc1ccccc1 [compound 72] | 110 nM | 0.00367 s⁻¹ | 33300 M⁻¹ s⁻¹ | 500 nM | – | > 100000 nM
CC(C)[C@H](NC(=O)OCc1ccccc1)C(=O)N[C@@H](Cc1ccccc1)[C@H]1O[C@H]1CNC(=O)[C@H](CC(N)=O)NC(=O)OCc1ccccc1 [compound 76, 4S-[N^1-[(N-benzyloxycarbonyl-L-asparaginyl)amino]]-[N^4-[(N-benzyloxycarbonyl-L-valinyl)amino]]-5-phenyl-(2S,3R)-(Z)-epoxypentane] | 2000 nM | 0.000767 s⁻¹ | 383 M⁻¹ s⁻¹ | 1000 nM | > 100000 nM | –
CC(C)CC[C@@H]1O[C@@H]1[C@H](Cc1ccccc1)NC(=O)[C@H](CC(N)=O)NC(=O)c1ccc2ccccc2n1 [compound 70, 2-L-[N-(2-quinolinecarbonyl)-L-asparaginyl]amino-(3R,4S)-epoxy-7-methyl-1-phenyloctane] | 310 nM | 0.002 s⁻¹ | 6500 M⁻¹ s⁻¹ | 5000 nM | > 100000 nM | –
CC(C)(C)NC(=O)[C@@H]1C[C@@H]2CCCC[C@@H]2CN1C[C@@H](O)[C@H](Cc1ccccc1)NC(=O)[C@H](CC(N)=O)NC(=O)c1ccc2ccccc2n1 [Ro-31-8959, reference compound] | – | – | – | 40 nM | – | > 100000 nM
NC(=O)C[C@H](NC(=O)COc1ccc(F)cc1F)C(=O)N[C@@H](Cc1ccccc1)[C@H]1O[C@H]1CCc1ccccc1 [compound 58, 2-L-[N-(2,4-difluoro)phenoxyacetyl-L-asparaginyl]amino-(3R,4S)-epoxy-1,6-diphenylhexane] | 3300 nM | 0.0005 s⁻¹ | 152 M⁻¹ s⁻¹ | – | – | –
CC(C)[C@H](NC(=O)OCc1cccnc1)C(=O)NC[C@@H]1O[C@@H]1[C@H](Cc1ccccc1)NC(=O)[C@@H](NC(=O)OCc1cccnc1)C(C)C [compound 78] | 720 nM | 0.00167 s⁻¹ | 2330 M⁻¹ s⁻¹ | – | – | –
